Measured values as given in ChEMBL document CHEMBL4680293, “Tubulin inhibitory activity of a novel colchicine-binding compounds based on a dinaphthospiropyranran scaffold” (Bioorg Med Chem, 2021).

Experiments:
Assay type in all cases: functional, cell-based
HL-60(TB) = test: Anti-cancer activity against human HL-60(TB) cells assessed as cell growth inhibition measured after 48 hrs by SRB method
K562 = test: Anti-cancer activity against human K562 cells assessed as cell growth inhibition measured after 48 hrs by SRB method
HCC 2998 = test: Anti-cancer activity against human HCC2998 cells assessed as cell growth inhibition measured after 48 hrs by SRB method
KM12 = test: Anti-cancer activity against human KM12 cells assessed as cell growth inhibition measured after 48 hrs by SRB method
M14 = test: Anti-cancer activity against human M14 cells assessed as cell growth inhibition measured after 48 hrs by SRB method
UACC-62 = test: Anti-cancer activity against human UACC-62 cells assessed as cell growth inhibition measured after 48 hrs by SRB method
MCF7 = test: Anti-cancer activity against human MCF-7 cells assessed as cell growth inhibition measured after 48 hrs by SRB method
Hs-578T = test: Anti-cancer activity against human HS-578T cells assessed as cell growth inhibition measured after 48 hrs by SRB method
NCI-H23 = test: Anti-cancer activity against human NCI-H23 cells assessed as cell growth inhibition measured after 48 hrs by SRB method
RXF 393 = test: Anti-cancer activity against human RXF 393 cells assessed as cell growth inhibition measured after 48 hrs by SRB method
UO-31 = test: Anti-cancer activity against human UO-31 cells assessed as cell growth inhibition measured after 48 hrs by SRB method
A498 = test: Anti-cancer activity against human A498 cells assessed as cell growth inhibition measured after 48 hrs by SRB method

C1=C2CNCC3=Cc4c(ccc5ccccc45)OC23Oc2ccc3ccccc3c21
IC50 (HL-60(TB); HL-60, 48 h): 5.32 µM | GI50 (HL-60(TB); HL-60, time 48 hrs): 5.57 µM | TGI (HL-60(TB); HL-60, time 48 hrs): 5.11 µM | CC50 (HL-60(TB); HL-60, time 48 hrs, read-out: LC50 (the source's name)): 4.07 µM | IC50 (K562; K562, 48 h): 3.55 µM | GI50 (K562; K562, time 48 hrs): 2.95 µM | TGI (K562; K562, time 48 hrs): 21.4 µM | CC50 (K562; K562, time 48 hrs, read-out: LC50 (the source's name)): 4 µM | IC50 (HCC 2998; HCC 2998, 48 h): 8.51 µM | GI50 (HCC 2998; HCC 2998, time 48 hrs): 3.98 µM | LC50 (lethal concentration, 50% cell kill) (HCC 2998; HCC 2998, time 48 hrs): 4.11 µM | TGI (HCC 2998; HCC 2998, time 48 hrs): 19.5 µM | IC50 (KM12; KM12, 48 h): 5.75 µM | GI50 (KM12; KM12, time 48 hrs): 3.8 µM | LC50 (KM12; KM12, time 48 hrs): 4.25 µM | TGI (KM12; KM12, time 48 hrs): 16.2 µM | IC50 (M14; M14, 48 h): 3.8 µM | GI50 (M14; M14, time 48 hrs): 2.19 µM | TGI (M14; M14, time 48 hrs): 5.13 µM | CC50 (M14; M14, time 48 hrs, read-out: LC50 (the source's name)): 4.56 µM | IC50 (UACC-62; UACC-62, 48 h): 12.9 µM | GI50 (UACC-62; UACC-62, time 48 hrs): 5.01 µM | LC50 (50% lethal concentration) (UACC-62; UACC-62, time 48 hrs): 4.16 µM | TGI (UACC-62; UACC-62, time 48 hrs): 21.9 µM | IC50 (MCF7; MCF7, 48 h): 3.98 µM | GI50 (MCF7; MCF7, time 48 hrs): 2.82 µM | TGI (MCF7; MCF7, time 48 hrs): 12.6 µM | CC50 (MCF7; MCF7, time 48 hrs, read-out: LC50 (the source's name)): 4.26 µM | IC50 (Hs-578T; 48 h): 100 µM | GI50 (Hs-578T; time 48 hrs): 2.24 µM | TGI (Hs-578T; time 48 hrs): 10.5 µM | CC50 (Hs-578T; time 48 hrs, read-out: LC50 (the source's name)): 4 µM | IC50 (NCI-H23; NCI-H23, 48 h): 20.9 µM | GI50 (NCI-H23; NCI-H23, time 48 hrs): 6.92 µM | TGI (NCI-H23; NCI-H23, time 48 hrs): 31.6 µM | IC50 (RXF 393; RXF 393, 48 h): 5.01 µM | GI50 (RXF 393; RXF 393, time 48 hrs): 1.78 µM | TGI (RXF 393; RXF 393, time 48 hrs): 6.17 µM | CC50 (RXF 393; RXF 393, time 48 hrs, read-out: LC50 (the source's name)): 4.32 µM | IC50 (UO-31; UO-31, 48 h): 17.4 µM | GI50 (UO-31; UO-31, time 48 hrs): 3.55 µM | TGI (UO-31; UO-31, time 48 hrs): 21.4 µM | CC50 (UO-31; UO-31, time 48 hrs, read-out: LC50 (the source's name)): 4.16 µM | IC50 (A498; A498, 48 h): 16.2 µM | GI50 (A498; A498, time 48 hrs): 3.89 µM | TGI (A498; A498, time 48 hrs): 17 µM | CC50 (A498; A498, time 48 hrs, read-out: LC50 (the source's name)): 4.34 µM
